Experimental findings from ChEMBL document CHEMBL1201862, “PubChem BioAssay data set” (2004) are described below.

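Five compound concentrations were applied to cells in 96-well plates for 48 hours; endpoints were derived by simple linear interpolation of the resulting dose-response curve. GI50 marks 50% less growth.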 Active and inactive are the calls of the source. No stated cut-off is given here; in the data, active = GI50 up to about 1.1 µM and inactive = higher.

Experiment in all cases: inhibition of tumour cell growth, NCI panel, 48 h
In assay [1] the test system is HL-60.
Assay [2] deals with NCI-H226.
Assay [3] concerns SK-OV-3.
Assay [4] has as its system MDA-N.
In assay [5] the test system is SK-MEL-5.
In assay [6] the test system is RXF 393.
The subject of assay [7] is MCF7.
Assay [8] deals with NCI/ADR-RES.
Assay [9] has as its system Malme-3M.
In assay [10] the test system is SK-MEL-28.
The subject of assay [11] is Hs-578T.
Assay [12] has as its system SR.
Assay [13] concerns PC-3.
The test system of assay [14] is UO-31.
Assay [15] concerns TK-10.
Assay [16] has as its system OVCAR-3.
The test system of assay [17] is T47D.
Assay [18] concerns HCC 2998.
Assay [19] concerns CCRF-CEM.
For assay [20], the system named is SF-539.

As for `C=CC/N=C(\S)Nc1sc2c(c1C(=O)OCC)CC(C)CC2` (stereo not given), the GI50 in [1] is 0.849 µM (active); in assay [2] it was 21.6 µM (inactive); in [3], 25.4 µM (inactive); in assay [4] it was 30.5 µM (inactive); in [5], 16.3 µM (inactive); in assay [6] it was 26.5 µM (inactive). The GI50 in [7] is 20.2 µM (inactive); in assay [8] it was 31.1 µM (inactive); in assay [9], 21.3 µM (inactive); in assay [10] it was 33.1 µM (inactive); in assay [11], 36.6 µM (inactive); in assay [12], 18.9 µM (inactive). For the same compound, the GI50 in assay [13] is 21.1 µM (inactive); in [14], 23.7 µM (inactive); in assay [15], 26.3 µM (inactive); in assay [16], 20.3 µM (inactive); in [17], 21.4 µM (inactive); in [18], 18.5 µM (inactive).
`Cc1ccc(C(=O)N(C(C)C)C(C)C)cc1/N=N/N(C)C`: the GI50 is 29.7 µM (inactive) in assay [1]; > 10 µM (inactive) in assay [19]; > 100 µM (inactive) in [2]; > 100 µM (inactive) in assay [3]; > 100 µM (inactive) in assay [4]; > 100 µM (inactive) in assay [5]. Moreover, the GI50 in assay [7] was > 100 µM (inactive); in [8] it was > 100 µM (inactive); in assay [9], 84.7 µM (inactive); in assay [10], 41.1 µM (inactive); in [11], 96.6 µM (inactive); in [12], 41.4 µM (inactive). Moreover, the GI50 in assay [13] is > 100 µM (inactive); in assay [14] it was > 61.4 µM (inactive); in [15], > 100 µM (inactive); in assay [20], > 95.7 µM (inactive); in assay [16], 31.3 µM (inactive); in [17] it was 39.4 µM (inactive). Besides, the GI50 in assay [18] is > 100 µM (inactive).
With `Oc1c(Br)cc(CN(Cc2cc(Br)c(O)c(Br)c2)C2CCCCC2)cc1Br`, the GI50 in assay [1], in [19], in assay [2], in assay [3], in [4] and in assay [5] was > 100 µM (inactive) each time. For the same compound, the GI50 in assay [6], in assay [7], in assay [8], in [9], in [10] and in assay [11] was > 100 µM (inactive) each time. In addition, the GI50 in assay [12], in assay [13], in assay [14], in [15], in [16] and in assay [17] was > 100 µM (inactive) each time.
`O=C(O)CNC(=O)c1ccc2cc(C(=O)N3CC(CCl)c4ccc([N+](=O)[O-])cc43)[nH]c2c1` (stereo not given): the GI50 in assay [1], in assay [19], in [2], in assay [3], in [4] and in assay [5] was > 100 µM (inactive) each time. Besides, the GI50 in assay [6], in assay [7], in assay [8], in assay [11], in assay [12] and in assay [13] was > 100 µM (inactive) throughout. For the same compound, the GI50 in [14], in assay [15], in [20], in [16] and in [17] was > 100 µM (inactive) in each case.
Turning to `CCCCCCSC[C@H](OC(C)=O)[C@@H](OC(C)=O)[C@@H](OC(C)=O)[C@@H](COC(C)=O)OC(C)=O`, the GI50 in assay [1] is 33.6 µM (inactive); in assay [19] it was 43.6 µM (inactive); in [2], > 100 µM (inactive); in [3] it was > 100 µM (inactive); in assay [4], > 100 µM (inactive); in assay [5], 23.4 µM (inactive). The GI50 in assay [6] is > 100 µM (inactive); in [7], 85.5 µM (inactive); in assay [8], > 100 µM (inactive); in assay [9], > 100 µM (inactive); in [10], > 100 µM (inactive); in assay [11], > 100 µM (inactive). Further, the GI50 was 27.7 µM (inactive) in assay [13]; > 100 µM (inactive) in [14]; > 100 µM (inactive) in assay [15]; > 100 µM (inactive) in assay [20]; 80.9 µM (inactive) in [16]; 38.6 µM (inactive) in assay [17]. Besides, the GI50 in assay [18] was > 100 µM (inactive).
For the compound `CC1(C)C(OC(=O)c2ccccc2)C[C@]23CCC[C@](C)(C[C@@H](O)C12)C3` (stereo not given in full), the GI50 was 31.5 µM (inactive) in [1]; 11.7 µM (inactive) in [19]; 18.8 µM (inactive) in assay [2]; 85.7 µM (inactive) in assay [3]; 18.9 µM (inactive) in [4]; 13.1 µM (inactive) in assay [5]. For the same compound, the GI50 in assay [7] is 16.4 µM (inactive); in assay [8] it was 14.5 µM (inactive); in [9], 19.2 µM (inactive); in assay [10], 15.8 µM (inactive); in [11], 19 µM (inactive); in assay [12] it was 9.91 µM (inactive). The GI50 in assay [13] was 11.5 µM (inactive); in assay [14], 18.8 µM (inactive); in assay [15], 29.5 µM (inactive); in [16], 30.6 µM (inactive); in assay [17], 19.9 µM (inactive).
Regarding `C#CCOC(=O)[C@@H](C)c1ccc2cc(OC)ccc2c1`, the GI50 in [1] is 15.1 µM (inactive); in assay [19] it was 31.1 µM (inactive); in [2] it was > 100 µM (inactive); in assay [3] it was > 100 µM (inactive); in assay [4], > 100 µM (inactive); in assay [5], 40.9 µM (inactive). Also, the GI50 in assay [6] was 86.5 µM (inactive); in assay [7], 63.8 µM (inactive); in assay [8] it was 68.2 µM (inactive); in [11] it was > 100 µM (inactive); in assay [12], 17.3 µM (inactive); in assay [13], 82.6 µM (inactive). The GI50 in assay [14] is 94 µM (inactive); in assay [15], > 100 µM (inactive); in assay [20], 76.9 µM (inactive); in assay [17], > 100 µM (inactive).
Regarding `COc1ccc2c(c1)CCc1c-2n(CCN(C)C)c2ccc(OC)cc12`, the GI50 in assay [19] was 2.38 µM (inactive); in assay [2], 3.03 µM (inactive); in [3], 25.9 µM (inactive); in assay [4], 5.46 µM (inactive); in assay [5] it was 12.4 µM (inactive); in assay [7], 16.4 µM (inactive). Moreover, the GI50 in [8] was 18.5 µM (inactive); in assay [9], 19.7 µM (inactive); in assay [10], 9.48 µM (inactive); in [11] it was 21.4 µM (inactive); in assay [12] it was 3.95 µM (inactive); in assay [13] it was 12.1 µM (inactive). In addition, the GI50 in assay [14] is 14 µM (inactive); in assay [15], 24.2 µM (inactive); in assay [16], 31 µM (inactive); in assay [17], 15.5 µM (inactive); in assay [18], 3.09 µM (inactive).
Turning to `COC(=O)NC1=NNC(=O)c2ccccc2N1`, the GI50 in assay [1], in assay [19], in assay [2], in assay [3], in [4] and in assay [5] was > 100 µM (inactive) in each case. Besides, the GI50 in [6], in [7], in assay [8], in assay [10], in assay [11] and in assay [12] was > 100 µM (inactive) throughout. For the same compound, the GI50 in assay [13], in assay [14], in assay [15], in [20], in assay [16] and in [17] was > 100 µM (inactive) throughout. Also, the GI50 in assay [18] is > 100 µM (inactive).
On to `CCOC(=O)/C=C(/C(=O)OCC)n1cc(C)c(=O)n(Cc2cn(CCCCOC(C)=O)nn2)c1=O`, for which the GI50 was 0.363 µM (active) in assay [19]; 18.4 µM (inactive) in [2]; > 100 µM (inactive) in assay [3]; 35 µM (inactive) in assay [4]; 25.6 µM (inactive) in assay [5]; 17.6 µM (inactive) in assay [6]. Also, the GI50 in assay [7] was 6.3 µM (inactive); in [8], 23.6 µM (inactive); in assay [10] it was 13.4 µM (inactive); in [11], 23.2 µM (inactive); in assay [12], 4.27 µM (inactive); in assay [13], 19.7 µM (inactive). The GI50 was 15.1 µM (inactive) in assay [14]; 4.67 µM (inactive) in assay [15]; 4.54 µM (inactive) in assay [20]; 14.7 µM (inactive) in assay [16]; 9.46 µM (inactive) in [17]; 18.3 µM (inactive) in [18].
For `CCC1c2[nH]c3ccccc3c2C[C@H]2C(=O)NC(CCCCNC(=O)OC(C)(C)C)C(=O)N12` (stereo not given in full), the GI50 was 31.8 µM (inactive) in assay [1]; > 100 µM (inactive) in [2]; 55.8 µM (inactive) in assay [3]; 20.7 µM (inactive) in [4]; 20.7 µM (inactive) in assay [5]; 30.5 µM (inactive) in assay [6]. The GI50 in [7] is 35.8 µM (inactive); in assay [8], 25.7 µM (inactive); in assay [9] it was 18 µM (inactive); in [10], 41.1 µM (inactive); in assay [11], 19.7 µM (inactive); in [12] it was 24.8 µM (inactive). Moreover, the GI50 was 22.7 µM (inactive) in [13]; 34.6 µM (inactive) in assay [14]; 33.6 µM (inactive) in assay [15]; 18.4 µM (inactive) in [16]; 31 µM (inactive) in [17].
